Read-outs that look alike come from different tables or passages of the source.
Key:
[1] = Stability of analytes in rat plasma QC samples under storage conditions; format: physicochemical; settings: n = 6; for Stability during 24 h at 4°C, RE: post-treatment storage in autosampler; for −80°C for 30 days, RE / Three freeze–thaw cycles, RE: rat plasma; for −80°C for 30 days, RE: long-term; for Three freeze–thaw cycles, RE: −80°C to room temperature
Procedure: The stability of QC samples in six replicates at three concentrations (low, medium, and high levels) was analyzed under different storage conditions: the post-treatment stability was analyzed after storage in an autosampler (4°C) for 24 h. Freeze–thaw stability was investigated after three freeze–thaw cycles (−80°C to room temperature as one cycle). Long-term stability was assessed by analyzing QC samples kept at −80°C for 30 days. The concentrations of the analytes in the plasma samples and the QC samples were calculated by the calibration standard curve prepared each day. The stabilities of analytes were acceptable when the accuracy (RE, %) and precision (RSD, %) of all QC samples in all storage conditions were within ±15% compared to nominal concentrations.

[2] = Pharmacokinetic study in rats after oral administration of cinobufacini capsule (UPLC-MS/MS of plasma); format: in vivo, rat; settings: male, Sprague-Dawley, in vivo, rat plasma, mean ± SD, n = 6; for CL/F: read-out: CLz/F (converted); for MRT last: read-out: MRT0-t; for MRT inf: read-out: MRT0-∞; for half-life: read-out: T1/2z (converted); for Vd/F: read-out: Vz/F
Procedure: Male Sprague–Dawley rats (weighing 200–220 g) of SPF grade were offered by Sippr/BK laboratory Animal, Corp., Ltd. (Shanghai, China) and fed in the Laboratory Animal Center of the Shanghai University of Traditional Chinese Medicine. All the rats were kept under environmentally controlled conditions with constant temperature (22–24°C) and humidity (60–65%). The animal experiment program in the present research was approved by the Animal Committee of the Shanghai University of Traditional Chinese Medicine (PZSHUTCM210618012).
An Agilent 1290 liquid chromatographic system includes a G4220A quaternary pump, a G1326C column incubator, a G4226A automatic sampler, and a G1330B degasser. The column temperature was set to 35°C. A measure of 5 µL of samples were separated in an Agilent SB-C18 column (2.1 mm ×50 mm, 1.8 μm) and eluted at 0.3 ml/min, followed by gradient elution with water (0.1% V/V formic acid) (A) and acetonitrile (B) (0–1 min, 20%–20% B; 1–3.5 min, 20%–80% B; 4–4.1 min, 80%-20% B; 4.1–6 min, 20% B). The total run time was 6 minutes.
An Agilent 1290 Infinity series UPLC system was combined with an Agilent 6460 series triple quadrupole mass spectrometer (Agilent Technologies, Santa Clara, CA, United States) to quantify all 13 analytes in an ESI-positive ionization mode. Quantitative analysis was performed in an MRM mode. The mass spectrum conditions were as follows: capillary voltage, 4000V; drying gas (N2), gas flow rate: 10 L/min; sprayer, 30 psi; gas temperature 350°C; The delta EMV (+) 200 V; collision gas (N2); dwell time, 25 ms. Agilent’s MassHunter Workstation software was used for data collection, peak area calculation, and quantitative analysis.
A measure of 50 µL of the plasma sample was mixed with 10 µL of the internal standard solution (345 ng/ml) in a 1.5-ml centrifuge tube and vortexed for 5 min. The samples were extracted by 500 µL of ethyl acetate for 5 min and centrifuged at 4°C for 10 min (18000 rpm). All the supernatants were collected into another 1.5-ml centrifuge tube, dried under a gentle stream of nitrogen at 37°C, and then added with 50 µL of 80% methanol for resolution. The resolution samples were centrifuged at 4°C for 10 min (18000 rpm), and 5 µL supernatant was extracted and injected for analysis.
Twenty-four male Sprague–Dawley rats (weigh 200–220 g) were divided into four groups with six rats in each group randomly, including three capsule groups at three different doses and one injection group. In the instructions for cinobufacini capsule and injection, the clinical dosage for adults is 2 g per 70 kg orally and 20 ml per 70 kg intravenously, converting to rat doses of 180 mg/kg and 1.8 ml/kg, respectively.
In the pre-experiments, we compared cinobufacini capsule of 180 mg/kg (one-time clinical dose) and 900 mg/kg (five times of clinical dose) and Cinobufacini injection of 1.8 ml/kg, but concentrations of some compounds in plasma were too low and difficult to be quantified. […] The experimental rats were led to fast the night and were free to get access to water for 12 h before the pharmacokinetic study. After administration, blood samples (approximately 150 μL) of rats were collected via retro-orbital sinus into heparinized centrifuge tubes at 0.05, 0.083, 0.25, 0.5, 0.75, 1, 2, 4, 6, 8, and 10 h. After centrifugation at 5,000 rpm for 10 min, the plasma was transferred to 1.5-ml polypropylene tubes and stored at −80°C until UPLC-MS/MS analysis.
GraphPad Prism software (version 8.0.2) was used to draw the mean plasma concentration–time curves of all analytes. The pharmacokinetic parameters were calculated by DAS 3.2.8 software. Meanwhile, the pharmacokinetic data on rats were presented as mean ± standard deviation (SD). Differences of pharmacokinetic parameters between groups were analyzed by the t-test using SPSS software (version 26.0). Differences were considered significant statistically when the p-values were <0.05 and very significant statistically when the p-values were <0.01.

[3] = high QC level (249.58–250.28 ng/ml)
[4] = medium QC level (49.92–50.06 ng/ml)
[5] = oral cinobufacini capsule 0.9 g/kg (low)
[6] = oral cinobufacini capsule 1.8 g/kg (medium)
[7] = oral cinobufacini capsule 3.6 g/kg (high)

Row | SMILES | Stability during 24 h at 4°C, RE [1, 3] | Stability during 24 h at 4°C, RE ([1]; low QC level (4.99–5.00 ng/ml)) | Stability during 24 h at 4°C, RE [1, 4] | −80°C for 30 days, RE [1, 3] | −80°C for 30 days, RE ([1]; low QC level (4.99–5.00 ng/ml)) | −80°C for 30 days, RE [1, 4] | Three freeze–thaw cycles, RE [1, 3] | Three freeze–thaw cycles, RE ([1]; low QC level (4.99–5.00 ng/ml)) | Three freeze–thaw cycles, RE [1, 4] | AUC(0-inf) [2, 5] | AUC(0-t) [2, 5] | Cmax [2, 5] | Tmax [2, 5] | CL/F [2, 5] | MRT last [2, 5] | MRT inf [2, 5] | half-life [2, 5] | Vd/F [2, 5] | AUC(0-inf) [2, 6] | AUC(0-t) [2, 6] | also measured
1 | C[C@]12CC[C@H](O)C[C@H]1CC[C@@H]1[C@@H]2[C@H](O)C[C@]2(C)[C@@H](c3ccc(=O)oc3)CC[C@]12O [GBL, gamabufotalin] | 5.4% | 12.0% | 10.9% | −4.9% | 8.3% | 12.4% | −0.6% | 13.2% | 10.7% | 13.6 ± 3.08 ng·h/mL | 10.8 ± 2.45 ng·h/mL | 13.3 ± 5.28 ng/mL | 15 min | 150 mL/min/kg | 24.6 ± 6.6 min | 38.4 ± 9.6 min | 22.2 min | 4.75 ± 0.98 L/kg | 23.4 ± 15 ng·h/mL | 21.9 ± 11.6 ng·h/mL | Cmax [2, 6]: 21.5 ± 7.57 ng/mL; Tmax [2, 6]: 27.6 ± 13.8 min; CL/F [2, 6]: 210 mL/min/kg; MRT last [2, 6]: 43.8 ± 6 min; MRT inf [2, 6]: 47.4 ± 13.2 min; half-life [2, 6]: 16.8 ± 15.6 min; Vd/F [2, 6]: 3.03 ± 2.02 L/kg; AUC(0-inf) [2, 7]: 54.5 ± 12.4 ng·h/mL; AUC(0-t) [2, 7]: 54 ± 12 ng·h/mL; Cmax [2, 7]: 49.5 ± 10.9 ng/mL; Tmax [2, 7]: 21.6 ± 12 min; CL/F [2, 7]: 153 mL/min/kg; MRT last [2, 7]: 49.8 ± 7.2 min; MRT inf [2, 7]: 51.6 ± 8.4 min; half-life [2, 7]: 18 ± 9.6 min; Vd/F [2, 7]: 3.74 ± 1.66 L/kg
2 | C[C@]12CC[C@H]3[C@@H](CC[C@]4(O)C[C@@H](O)CC[C@]34C=O)[C@@]1(O)CC[C@@H]2c1ccc(=O)oc1 [HBG, hellebrigenin] | 0.8% | 10.2% | −4.7% | −1.3% | −5.0% | 8.9% | 1.5% | 9.3% | −2.1% | 4.21 ± 2.23 ng·h/mL | 3.97 ± 1.73 ng·h/mL | 2.47 ± 1.38 ng/mL | 56.4 ± 45 min | 237 mL/min/kg | 215 ± 97.8 min | 229 ± 119 min | 61.2 ± 36 min | 14.2 ± 3.88 L/kg | 13.8 ± 5.4 ng·h/mL | 13.7 ± 4.3 ng·h/mL | Cmax [2, 6]: 8.36 ± 2.92 ng/mL; Tmax [2, 6]: 40.8 ± 21 min; CL/F [2, 6]: 110 mL/min/kg; MRT last [2, 6]: 137 ± 75.6 min; MRT inf [2, 6]: 153 ± 91.8 min; half-life [2, 6]: 80.4 ± 65.4 min; Vd/F [2, 6]: 11.1 ± 5.04 L/kg; AUC(0-inf) [2, 7]: 31.1 ± 11.4 ng·h/mL; AUC(0-t) [2, 7]: 31.1 ± 11.4 ng·h/mL; Cmax [2, 7]: 18.2 ± 5.84 ng/mL; Tmax [2, 7]: 23.4 ± 12 min; CL/F [2, 7]: 118 mL/min/kg; MRT last [2, 7]: 128 ± 49.8 min; MRT inf [2, 7]: 128 ± 49.2 min; half-life [2, 7]: 37.8 ± 6 min; Vd/F [2, 7]: 6.35 ± 2.55 L/kg
